Data taken from patent publication US20230141718A1, “METHODS OF TREATING GLIOBLASTOMA” (CELGENE QUANTICEL RESEARCH, INC., priority 2021, published 2023).
Several values for one entry are separate records, joined by “and”; a condition that tells them apart may be missing. Identical values can stand only once. Like-named read-outs stand apart in the source and are kept apart here.

What was measured:
[1] = tested on: HEXIM1 (hexamethylene bis-acetamide-inducible protein 1) mRNA; assay: Blood and tumor HEXIM1 mRNA pharmacodynamics, CC-90010-GBM-001; assay type: in vivo, human
Description: The primary objectives of the study in this example were determination of tumor tissue concentration and plasma pharmacokinetics (PK) of Compound A. The secondary and exploratory objectives included safety, antitumor activity, cerebrospinal fluid concentration, and pharmacodynamics (PD).
Patients were treated with Compound A at 30 mg daily on Day 1 to Day 4 prior to undergoing indicated tumor resection and to maintain platelet count above the minimum of […] recommended for surgery (Part A, preoperative treatment). Following recovery from surgery and a minimum of 4 weeks from the first dose of Compound A, subjects who were fit to continue were treated with Compound A at 45 mg on a 4 days on/24 days off schedule (180 mg per 28-day cycle). Maintenance treatment continued until disease progression, unacceptable toxicity, or withdrawal of consent.
Blood HEXIM1 (hexamethylene bis-acetamide-inducible protein 1) mRNA was increased at 72-96 hours following first dose, and the percentage increase correlated with plasma concentration of Compound A at surgery. Tumor HEXIM1 RNA increased in 10 of 11 patients. Additionally, blood HEXIM1 mRNA expression was increased in all subjects at 72-96 hours following the first dose. Percentage HEXIM1 increase was related to plasma Compound A concentration at biopsy.

[2] = Plasma pharmacokinetics of Compound A, CC-90010-GBM-002; assay type: in vivo, human; parameters: AUC / AUC(0-inf): concentration or dose not given beside the values; settings: for Cmax / AUC / AUC(0-inf): geometric mean; for tmax: median; for AUC: read-out: AUC24
Description: The primary objectives of the study in this example were to establish the safety, maximum tolerated dose (MTD), and recommended phase 2 dose (RP2D) of Compound A. The preliminary efficacy, pharmacokinetics, and pharmacodynamics were also investigated.
The study described in this example (CC-90010-GBM-002/NCT04324840) is a phase 1B dose-finding study investigating standard of care of Compound A in combination with TMZ with or without radiotherapy (RT) in subjects with newly diagnosed GBM. Part A of the study is escalating the oral doses of Compound A in combination with adjuvant TMZ to estimate the MTD and/or the RP2D of Compound A as adjuvant therapy and escalating the oral doses of Compound A in combination with concomitant TMZ+radiotherapy (RT) to estimate the MTD and/or the RP2D of Compound A as concomitant therapy. Part B of the study is the safety and efficacy of Compound A administered at or below the MTD determined for the adjuvant therapy (AT) and concomitant therapy (CT).
For adjuvant therapy, Compound A and TMZ was administered for 6 cycles, then Compound A as a monotherapy was administered in 28-day cycles until disease progression, start of a new anticancer therapy, or withdrawal of consent or physician's decision. For adjuvant therapy, Compound A was administered at 15, 30, and 45 mg 4 days on/24 days off and TMZ was administered at 150 or 200 mg/m^2 QD Days 1-5, followed by Compound A at 45 mg 4 days on/24 days off. For adjuvant therapy, part B, Compound A was administered at RP2D and TMZ was administered at 150 or 200 mg/m^2, followed by Compound A at 45 mg 4 days on/24 days off.
For concomitant therapy, Compound A, TMZ, and RT were administered for 6 weeks, then 4-week break, followed by adjuvant Compound A and TMZ for 6 cycles then Compound A monotherapy in 28-day cycles until disease progression, start of a new anticancer therapy, withdrawal of consent or physician's decision. For concomitant therapy, part A, Compound A was administered at 15 mg or 30 mg QD Days 1-4 (weeks 1,5), TMZ was administered at 75 mg/m^2/day QD, and RT was administered at 2 Gy QD×5 days/week, for 42 days. This was then followed by a break in treatment therapy, e.g., from 1 to up to 4 weeks. Thereafter, adjuvant therapy was initiated by administering Compound A at 30 mg or 45 mg and TMZ at 150 or 200 mg/m^2 QD Days 1-5 of a 28-day cycle. Adjuvant therapy cycles were repeated from 2 to 6 times. After adjuvant therapy, was a monotherapy treatment. Monotherapy comprised administering Compound A at 45 mg 4 days on/24 days off.
Data presented as geometric mean (geometric CV %) for AUC and Cmax, mean (SD) for t1/2, and median (range) for tmax. AI AUC, accumulation index ratio of exposure measured at Day 4 to that after Day 1; AI Cmax, accumulation index ratio of maximum observed concentration at Day 4 to that after Day 1; AUC24, area under the concentration-time curve within a 24-hour dosing interval; Cmax, maximum observed concentration; NA, not applicable; t1/2, apparent terminal phase half-life.

[3] = human, plasma, oral, LD, Part A
[4] = human, plasma, oral, LD, Part B

Question: Which “Blood HEXIM1 mRNA change” value ([1]; 72-96 hours following first dose) does the source give for `Cn1cc(-c2cc(S(C)(=O)=O)ccc2OCC2CC2)c2ccccc2c1=O` [Compound A, 4-[2-(cyclopropylmethoxy)-5-methylsulfonylphenyl]-2-methylisoquinolin-1-one] here?
Answer: Its value is “increased”.

Question: And the “HEXIM1 mRNA increased in resected brain tumor tissue versus archival tissue, patients” value ([1]; group P=0.00093)?
Answer: Its value is 15 of 18.

Question: What about the “Tumor HEXIM1 RNA increased, patients” value ([1]; tumor) of the same compound?
Answer: The value was 10 of 11.

Question: And the “Exposure versus dose” value ([2]; 15, 30, 45 mg with TMZ)?
Answer: Its value is “increased proportionally with dose”.

Question: And the Cmax ([2]; D1, GBM-002 (Part A) (n = 6))?
Answer: The Cmax was 306 ng/mL.

Question: What about the tmax ([2]; D1, Part A) of the same compound?
Answer: The tmax was 2.0 h.

Question: And the “Day 4 time to peak Compound A concentration” value ([2]; Day 4)?
Answer: Its value is 0.5 to 2.0 h and 0.5 to 4.0 h.

Question: And the Cmax ([2]; LD, GBM-002 (Part A) (n = 6))?
Answer: Its Cmax is 822 ng/mL.

Question: What about the T1/2 ([2]; LD, Part A, mean) of the same compound?
Answer: The T1/2 was 68 h.

Question: What about the tmax ([2]; LD, Part A) of the same compound?
Answer: The tmax was 1.5 h.

Question: And the “AI AUC24 (accumulation index ratio, Day 4 to Day 1)” value ([2]; Part A)?
Answer: Its value is 3.05.

Question: And the “AI Cmax (accumulation index ratio, Day 4 to Day 1)” value ([2]; Part A)?
Answer: The value was 2.69.

Question: And the “AI AUC24 (accumulation index ratio, Day 4 to Day 1)” value ([2]; Part B)?
Answer: The value was 2.61.

Question: What about the “AI Cmax (accumulation index ratio, Day 4 to Day 1)” value ([2]; Part B) of the same compound?
Answer: Its value is 2.11.

Question: What about the “effect of coadministration with RT and TMZ on Compound A PK” value ([2]; Part B) of the same compound?
Answer: The value was “did not appear to impact Compound A PK”.

Question: What about the Cmax ([2]; human, plasma, oral, D1, GBM-002 (Part B) (n = 17), read-out: Cmax) of the same compound?
Answer: The Cmax was 350 ng/mL.

Question: What about the AUC ([2]; human, plasma, oral, D1, Part A) of the same compound?
Answer: Its AUC is 4580 ng·h/mL.

Question: And the AUC ([2]; human, plasma, oral, D1, Part B)?
Answer: Its AUC is 4890 ng·h/mL.

Question: And the Cmax ([2]; human, plasma, oral, LD, GBM-002 (Part B) (n = 17), read-out: Cmax)?
Answer: Its Cmax is 740 ng/mL.

Question: And the AUC(0-inf) [2, 3]?
Answer: Its AUC(0-inf) is 49800 ng·h/mL.

Question: And the AUC [2, 3]?
Answer: Its AUC is 13900 ng·h/mL.

Question: What about the AUC(0-inf) [2, 4] of the same compound?
Answer: The AUC(0-inf) was 48700 ng·h/mL.

Question: And the AUC [2, 4]?
Answer: Its AUC is 12700 ng·h/mL.

Question: What about the half-life ([2]; human, plasma, oral, LD, Part B, mean, read-out: T1/2 (converted)) of the same compound?
Answer: The half-life was 58 h.

Question: What about the half-life ([2]; human, plasma, oral, read-out: mean terminal half-life) of the same compound?
Answer: Its half-life is 60 to 70 h.
